The values that follow come from paper PMC3307704 (PLoS ONE, 2012).

pIC50: −log10 of the molar value. Entries after “also recorded” stand apart in the source; their conditions may differ. Like-named read-outs stand apart in the source and are kept apart here.

The target in one data set is T1, Human Aβ(1–42) (Homo sapiens, UniProt P05067).
T1 construct: Human Aβ(1–42) was purchased from AnaSpec (San Jose, CA); purchased AnaSpec (San Jose, CA)
Kind of data set: Aβ peptide oligomerization reaction with capture ELISA for Aβ oligomer detection. Particulars: for inhibition at 1 µM: read-out: Inhibitory activity (Aβ oligomerization). Type of data set: biochemical. (In general: ELISA stands for enzyme-linked immunosorbent assay.)

The subject of a further data set is Murine microglial cells. Kind of data set: Wst-1 assay (cytotoxicity). The format is cell-based. Particulars: 24 h.
For data set [1], the system named is Aβ deposition in aged APP(Swedish)-transgenic mice (Tg2576). The conditions noted are these: dietary supplement; cited from earlier work.
In data set [2] the test system is high-molecular weight fibrils (Aβ). The conditions noted are these: in vitro; read-out: IC50, formation of high-molecular weight fibrils; cited from earlier work.
Data set [3] concerns low-molecular weight Aβ oligomers. The conditions noted are these: in vitro; read-out: IC50, formation of low-molecular weight Aβ oligomers; cited from earlier work.
The next data set relates to Aβ aggregation. The conditions noted are these: saturation of the 7-carbon linker; cited from earlier work.
[4] abbreviates: 1 µM compound, 200 nM monomeric Aβ peptide, 37°C, 24 h, capture ELISA.

T1 sequence (P05067 672-713 limits assumed): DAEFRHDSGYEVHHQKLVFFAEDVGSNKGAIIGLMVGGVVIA

With `COc1ccc(/C=C/C(=O)/C=C(O)/C=C/c2ccc(OC)c(O)c2)cc1O` [compound 1], the inhibition at 1 µM at Human Aβ(1–42) (setting [4]) was 80%.

As to `COc1ccc(/C=C/C(=O)/C=C(O)/C=C/c2ccc(OC)c(OC)c2)cc1OC` [compound 2], the “LD50 value relative to that of curcumin” value in the data set with Murine microglial cells (printed as fold lower than curcumin) is reported as “approximately 2 fold”. On Human Aβ(1–42), the pIC50 is 6.82 and the inhibition at 1 µM was determined as 75%. For the same molecule, on Human Aβ(1–42) (ratio of IC50 values versus curcumin), the “Improvement of Aβ aggregation inhibitory activity over curcumin” value is listed as 6-7 fold.

For the molecule `COc1cc(/C=C/C(=O)/C(C)=C(O)/C=C/c2ccc(O)c(OC)c2)ccc1O` [compound 3], the inhibition at 1 µM on Human Aβ(1–42) (setting [4]) was found to be 66%.

Consider `COc1cc(/C=C/C(=O)/C(Cc2ccccc2)=C(O)/C=C/c2ccc(O)c(OC)c2)ccc1O` [compound 4], for which the inhibition at 1 µM at Human Aβ(1–42) (setting [4]) amounted to 51%.

Consider `COc1cccc(/C=C/C(=O)/C=C(O)/C=C/c2cccc(OC)c2OC)c1OC` [compound 7], for which the inhibition at 1 µM on Human Aβ(1–42) (setting [4]) stood at 45%.

As for `O=C(/C=C/c1ccc(O)c(O)c1)/C=C/c1ccc(O)c(O)c1` [compound 8], the inhibition at 1 µM at Human Aβ(1–42) (setting [4]) is 74%.

For `COC(=O)c1ccc(/C=C/C(=O)/C=C/c2ccc(C(=O)OC)cc2)cc1` [compound 9], the inhibition at 1 µM at Human Aβ(1–42) (setting [4]) was 66%.

For the molecule `O=C(/C=C/c1ccccc1)/C=C/c1ccccc1` [compound 10], the inhibition at 1 µM on Human Aβ(1–42) (setting [4]) amounted to 65%.

As for `COc1cc(/C=C/C(=O)/C=C/c2ccccc2)ccc1O` [compound 11], on Human Aβ(1–42) (setting [4]), the inhibition at 1 µM worked out at 63%.

As for `COc1ccccc1/C=C/C(=O)/C=C/c1ccccc1OC` [compound 12], the inhibition at 1 µM on Human Aβ(1–42) (setting [4]) is 63%.

On to `Cc1ccc(/C=C/C(=O)/C=C/c2ccc(C)cc2)cc1` [compound 13], for which the inhibition at 1 µM on Human Aβ(1–42) (setting [4]) was found to be 62%.

On to `COc1cc(/C=C/C(=O)/C=C/c2ccc(O)c(OC)c2)ccc1O` [compound 14], for which, at Human Aβ(1–42), the inhibition at 1 µM was determined as 58%.

Take `O=C(/C=C/c1cccc(Cl)c1)/C=C/c1cccc(Cl)c1` [compound 15]: at Human Aβ(1–42) (setting [4]), the inhibition at 1 µM amounted to 58%.

As to `COc1cccc(/C=C/C(=O)/C=C/c2cccc(OC)c2)c1` [compound 16], on Human Aβ(1–42) (setting [4]), the inhibition at 1 µM amounted to 56%.

`O=C(/C=C/c1cccc(C(F)(F)F)c1)/C=C/c1cccc(C(F)(F)F)c1` [compound 17]: the inhibition at 1 µM at Human Aβ(1–42) (setting [4]) was 55%.

As to `CN(C)c1ccc(/C=C/C(=O)/C=C/c2ccc(N(C)C)cc2)cc1` [compound 18], at Human Aβ(1–42) (setting [4]), the inhibition at 1 µM is 54%.

Turning to `COc1cc(/C=C/C(=O)/C=C/c2ccc(OC(C)=O)c(OC)c2)ccc1OC(C)=O` [compound 19], the inhibition at 1 µM on Human Aβ(1–42) (setting [4]) came to 53%.

On to `O=C(/C=C/c1ccc(O)cc1)/C=C/c1ccc(O)cc1` [compound 20], for which the inhibition at 1 µM on Human Aβ(1–42) (setting [4]) amounted to 49%.

Regarding `COc1cc(/C=C/C(=O)CC(=O)/C=C/c2ccc(O)c(OC)c2)ccc1O` [curcumin], in data set [1], the “Effect on Aβ deposition” value was “reduced Aβ deposition; also recorded: significantly lowered Aβ deposition”. Moreover, the figures for the negative logarithm of the IC50 (pIC50) in data set [2] and in data set [3] were 6.10 and 6.00, respectively. For the same molecule, the “LD50 value (cytotoxicity, Wst-1)” value in the data set on Murine microglial cells came to 40 µM. Also, on Human Aβ(1–42), the inhibition at 1 µM came to 50%.

As for `COc1cc(CCC(=O)CC(=O)CCc2ccc(O)c(OC)c2)ccc1O` [tetrahydrocurcumin], the “Aβ aggregation inhibitory activity” value with Aβ aggregation is recorded as “abolished Aβ aggregation inhibitory activity”.

What is called pIC50 is the IC50 on a negative log10 scale, so that one unit is a factor of ten.
